Measured values taken from ChEMBL document CHEMBL1155734, “Multiplolides A and B, new antifungal 10-membered lactones from Xylaria multiplex” (J Nat Prod, 2001).
Values after ≈ are worked out from the molar mass of the structure shown. Active and inactive are the calls of the source. No cut-off for these calls is given here.

Columns and labels:
Candida albicans = experiment: Antifungal activity against Candida albicans by colorimetric method; assay type: functional, organism-based
Plasmodium falciparum [1] = experiment: Antimalarial activity as growth inhibition of Plasmodium falciparum K1 by [3H]hypoxanthine uptake; assay type: functional, organism-based
KB = experiment: Cytotoxicity against human KB cells at 20 ug/mL; assay type: functional, cell-based
BC1 = experiment: Cytotoxicity against human BC1 cells at 20 ug/mL; assay type: functional, cell-based
Plasmodium falciparum [2] = experiment: Antimalarial activity as growth inhibition of Plasmodium falciparum K1 at 20 ug/mL by [3H]hypoxanthine uptake; assay type: functional, organism-based

Row | IC50 (Candida albicans) | Compound | IC50 (Plasmodium falciparum [1]) | Activity (KB) | Activity (BC1) | Activity (Plasmodium falciparum [2])
1 | 0.01 µg/mL (≈ 0.0108 µM) | C[C@@H]1[C@H](O)[C@@H](C)/C=C/C=C/C=C/C=C/C=C/C=C/C=C/[C@H](O[C@@H]2O[C@H](C)[C@@H](O)[C@H](N)[C@@H]2O)C[C@@H]2O[C@](O)(C[C@@H](O)C[C@@H](O)[C@H](O)CC[C@@H](O)C[C@@H](O)CC(=O)O[C@H]1C)C[C@H](O)[C@H]2C(=O)O [AMPHOTERICIN B] | – | – | – | –
2 | – | C[C@@H]1CC[C@H]2[C@@H](C)C(=O)O[C@@H]3O[C@@]4(C)CC[C@@H]1[C@]32OO4 [ARTEMISININ] | 0.001 µg/mL (≈ 0.00354 µM) | – | – | –
3 | 7 µg/mL (≈ 32.7 µM) | C[C@@H]1C[C@@H](O)[C@@H](O)/C=C/[C@@H]2O[C@@H]2C(=O)O1 [MULTIPLOLIDE A] | – | inactive | inactive | inactive
4 | 2 µg/mL (≈ 7.08 µM) | C/C=C/C(=O)O[C@@H]1C[C@@H](C)OC(=O)C2OC2/C=C/[C@@H]1O (stereo not given in full) [MULTIPLOLIDE B] | – | inactive | inactive | inactive
